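Each compound was tested at five concentrations against cells in 96-well plates for 48 hours. The concentration for 50% growth inhibition is given as GI50.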 The source made the active and inactive calls. Cut-off read from the data, not from the text of the source: active = GI50 up to about 1.1 µM and inactive = higher. Non-standard residues stand in square brackets, D forms with d. Residues, ends and D or L forms follow the SMILES beside them. ξ: configuration not given here. ξLac(3-iPr) = CC(C)CC(O)C(=O)O; NMeV = CN[CH](C(=O)O)C(C)C; NMeA = CN[CH](C)C(=O)O; βAla = NCCC(=O)O
Columns and labels:
Assay in all cases: inhibition of tumour cell growth, NCI panel, 48 h
A498 = tested on: A498
ACHN = tested on: ACHN
BT-549 = tested on: BT-549
CCRF-CEM = tested on: CCRF-CEM
COLO 205 = tested on: COLO 205
EKVX = tested on: EKVX
HCT-116 = tested on: HCT-116
HCT-15 = tested on: HCT-15
HOP-92 = tested on: HOP-92
Hs-578T = tested on: Hs-578T
K562 = tested on: K562
MCF7 = tested on: MCF7
MDA-N = tested on: MDA-N
OVCAR-3 = tested on: OVCAR-3
OVCAR-5 = tested on: OVCAR-5
SF-268 = tested on: SF-268
SK-MEL-2 = tested on: SK-MEL-2
TK-10 = tested on: TK-10
U-251 = tested on: U-251
DLD-1 = tested on: DLD-1

Compound	GI50 (A498)	GI50 (ACHN)	GI50 (BT-549)	GI50 (CCRF-CEM)	GI50 (COLO 205)	GI50 (EKVX)	GI50 (HCT-116)	GI50 (HCT-15)	GI50 (HOP-92)	GI50 (Hs-578T)	GI50 (K562)	GI50 (MCF7)	GI50 (MDA-N)	GI50 (OVCAR-3)	GI50 (OVCAR-5)	GI50 (SF-268)	GI50 (SK-MEL-2)	GI50 (TK-10)	GI50 (U-251)	GI50 (DLD-1)
Cc1cc(O)c(-c2cc(O)c(C)cc2O)cc1O	21 µM (inactive)	3.94 µM (inactive)	12.2 µM (inactive)	1.08 µM (active)	7.16 µM (inactive)	8.99 µM (inactive)	5.55 µM (inactive)	7.67 µM	2.25 µM (inactive)	25.9 µM (inactive)	1.86 µM (inactive)	10 µM (inactive)	8.34 µM (inactive)	2.14 µM (inactive)	16.6 µM (inactive)	19.1 µM (inactive)	17.2 µM (inactive)	5.93 µM (inactive)	15 µM (inactive)	–
Cc1cc(C)nc(NS(=O)(=O)c2ccc(NC(=O)c3cccn4c(=O)c5ccccc5nc34)cc2)n1	–	> 100 µM (inactive)	–	27.5 µM (inactive)	40.6 µM (inactive)	26.1 µM (inactive)	53.5 µM (inactive)	31 µM	–	–	32.1 µM (inactive)	–	–	–	> 100 µM (inactive)	51.1 µM (inactive)	> 100 µM (inactive)	> 100 µM (inactive)	37.4 µM (inactive)	31.9 µM (inactive)
O=C1Nc2cccc(Cl)c2/C1=C\c1c(Cl)nc2sccn12	33.1 µM (inactive)	12.2 µM (inactive)	28.8 µM (inactive)	> 100 µM (inactive)	> 100 µM (inactive)	43.3 µM (inactive)	37.3 µM (inactive)	> 100 µM	16.8 µM (inactive)	21.9 µM (inactive)	> 100 µM (inactive)	> 100 µM (inactive)	> 100 µM (inactive)	> 100 µM (inactive)	> 100 µM (inactive)	18.9 µM (inactive)	13.5 µM (inactive)	11.2 µM (inactive)	6.03 µM (inactive)	–
Cc1ccc(Cc2n[nH]c(=O)n2Nc2ccccc2)cc1	> 100 µM (inactive)	> 100 µM (inactive)	> 100 µM (inactive)	> 100 µM (inactive)	> 100 µM (inactive)	81.5 µM (inactive)	> 100 µM (inactive)	> 100 µM	65.2 µM (inactive)	> 100 µM (inactive)	> 100 µM (inactive)	> 100 µM (inactive)	> 100 µM (inactive)	> 100 µM (inactive)	> 100 µM (inactive)	> 100 µM (inactive)	> 100 µM (inactive)	> 100 µM (inactive)	> 100 µM (inactive)	–
CC(C)(C)c1cc(OCc2nnc3sc(S)nn23)c(Cl)cc1OCc1nnc2sc(S)nn12	39.6 µM (inactive)	26.1 µM (inactive)	30.5 µM (inactive)	11.3 µM (inactive)	39.1 µM (inactive)	30.3 µM (inactive)	22.1 µM (inactive)	40.6 µM	17.5 µM (inactive)	77.3 µM (inactive)	32.6 µM (inactive)	15.6 µM (inactive)	18.9 µM (inactive)	25.2 µM (inactive)	35.2 µM (inactive)	24.9 µM (inactive)	27.4 µM (inactive)	35 µM (inactive)	29.1 µM (inactive)	–
Cc1ccc(/C=N\NC(=O)c2ccncc2)s1	> 100 µM (inactive)	> 100 µM (inactive)	> 100 µM (inactive)	> 100 µM (inactive)	> 100 µM (inactive)	> 100 µM (inactive)	> 100 µM (inactive)	> 100 µM	> 100 µM (inactive)	> 100 µM (inactive)	> 100 µM (inactive)	> 100 µM (inactive)	> 100 µM (inactive)	> 100 µM (inactive)	> 100 µM (inactive)	> 100 µM (inactive)	> 100 µM (inactive)	> 100 µM (inactive)	> 100 µM (inactive)	–
CCOC(=O)NC(Nc1ccc(S(=O)(=O)Nc2nc(C)cc(C)n2)cc1)(C(=O)OCC)C(F)(F)F (stereo not drawn)	> 100 µM (inactive)	> 100 µM (inactive)	> 100 µM (inactive)	> 100 µM (inactive)	> 100 µM (inactive)	> 100 µM (inactive)	> 100 µM (inactive)	> 100 µM	> 100 µM (inactive)	> 100 µM (inactive)	> 100 µM (inactive)	> 100 µM (inactive)	> 100 µM (inactive)	> 100 µM (inactive)	> 100 µM (inactive)	> 100 µM (inactive)	> 100 µM (inactive)	72.9 µM (inactive)	> 100 µM (inactive)	–
CCCCCC(=O)C(C)C1=Nc2nnc(CCCCCCCc3nnc4n3C(=O)C(C(C)C(=O)CCCCC)=N4)n2C1=O (stereo not drawn)	–	> 100 µM (inactive)	–	> 100 µM (inactive)	> 100 µM (inactive)	> 100 µM (inactive)	> 100 µM (inactive)	> 100 µM	–	–	> 100 µM (inactive)	–	–	> 100 µM (inactive)	> 100 µM (inactive)	> 100 µM (inactive)	–	> 100 µM (inactive)	> 100 µM (inactive)	> 100 µM (inactive)
CN(C)c1ccc(/C=N/c2ccc(-c3nc4ccccc4[nH]3)cc2)cc1	69.5 µM (inactive)	59.3 µM (inactive)	19.3 µM (inactive)	37.7 µM (inactive)	60.8 µM (inactive)	> 100 µM (inactive)	43.6 µM (inactive)	24.6 µM	> 100 µM (inactive)	63 µM (inactive)	35 µM (inactive)	46.9 µM (inactive)	> 100 µM (inactive)	71.1 µM (inactive)	> 100 µM (inactive)	60 µM (inactive)	> 100 µM (inactive)	> 100 µM (inactive)	39.2 µM (inactive)	–
O=C1CSC(=S)N1c1ccco1	> 100 µM (inactive)	> 100 µM (inactive)	16.3 µM (inactive)	> 100 µM (inactive)	79.4 µM (inactive)	> 100 µM (inactive)	60.4 µM (inactive)	22 µM	> 100 µM (inactive)	> 100 µM (inactive)	> 100 µM (inactive)	39.2 µM (inactive)	19.8 µM (inactive)	77.8 µM (inactive)	> 100 µM (inactive)	> 100 µM (inactive)	46.7 µM (inactive)	> 100 µM (inactive)	> 100 µM (inactive)	–
N=C(N)SCCON1C(=O)c2ccccc2C1=O	> 100 µM (inactive)	> 100 µM (inactive)	> 100 µM (inactive)	> 100 µM (inactive)	> 100 µM (inactive)	> 100 µM (inactive)	> 100 µM (inactive)	> 100 µM	> 100 µM (inactive)	> 100 µM (inactive)	> 100 µM (inactive)	> 100 µM (inactive)	> 100 µM (inactive)	> 100 µM (inactive)	> 100 µM (inactive)	> 100 µM (inactive)	> 100 µM (inactive)	> 100 µM (inactive)	> 100 µM (inactive)	–
Cc1ccc2nc(Cl)c(/C=N/N3C(=O)/C(=C/Cc4ccco4)N=C3c3ccccc3)cc2c1	5.06 µM (inactive)	72.3 µM (inactive)	29.7 µM (inactive)	> 100 µM (inactive)	51.5 µM (inactive)	30.5 µM (inactive)	18.5 µM (inactive)	27.7 µM	28.9 µM (inactive)	34.2 µM (inactive)	38.1 µM (inactive)	40.3 µM (inactive)	16.9 µM (inactive)	71.1 µM (inactive)	> 74.6 µM (inactive)	31.3 µM (inactive)	56.6 µM (inactive)	18.4 µM (inactive)	50.8 µM (inactive)	–
CC(NC(=O)OCc1ccccc1)NC(=O)C(CC(=O)OC(C)(C)C)NC(=O)OC(C)(C)C (stereo not drawn)	> 100 µM (inactive)	> 100 µM (inactive)	> 100 µM (inactive)	> 100 µM (inactive)	> 100 µM (inactive)	> 100 µM (inactive)	> 100 µM (inactive)	> 100 µM	> 100 µM (inactive)	> 100 µM (inactive)	> 100 µM (inactive)	> 100 µM (inactive)	> 100 µM (inactive)	> 100 µM (inactive)	> 100 µM (inactive)	98.4 µM (inactive)	> 100 µM (inactive)	> 100 µM (inactive)	> 100 µM (inactive)	–
C[N+](C)(C)CCCCCc1c2nc(c(CCCCC[N+](C)(C)C)c3ccc([nH]3)c(CCCCC[N+](C)(C)C)c3nc(c(CCCCC[N+](C)(C)C)c4ccc1[nH]4)C=C3)C=C2	> 100 µM (inactive)	> 100 µM (inactive)	> 100 µM (inactive)	> 100 µM (inactive)	> 100 µM (inactive)	99.8 µM (inactive)	> 100 µM (inactive)	> 100 µM	> 100 µM (inactive)	56 µM (inactive)	> 100 µM (inactive)	> 100 µM (inactive)	> 100 µM (inactive)	> 100 µM (inactive)	> 100 µM (inactive)	> 100 µM (inactive)	> 100 µM (inactive)	11.3 µM (inactive)	> 100 µM (inactive)	–
CCC(C)C1NC(=O)C2CCCN2C(=O)C(CC(C)C)OC(=O)CCNC(=O)C(C)N(C)C(=O)C(C(C)C)N(C)C1=O (stereo not drawn) (cyclo([ξLac(3-iPr)]PI[NMeV][NMeA][βAla]); configuration not given here)	23.9 µM (inactive)	4.58 µM (inactive)	> 26.1 µM (inactive)	0.736 µM (active)	3.61 µM (inactive)	10.2 µM (inactive)	2.2 µM (inactive)	4.57 µM	17.9 µM (inactive)	23.2 µM (inactive)	3.16 µM (inactive)	2.64 µM (inactive)	2.61 µM (inactive)	6.7 µM (inactive)	4.83 µM (inactive)	6 µM (inactive)	2.42 µM (inactive)	23.2 µM (inactive)	10.3 µM (inactive)	–

From ChEMBL document CHEMBL1201862, “PubChem BioAssay data set” (2004)
